# Results published in US5514694A, “Peptidyl ketoamides” (Georgia Tech Research Corp, priority 1993, dated 1996).
# pKi: −log10 of the molar value.
# Biological target: T1, Calpain I from human erythrocytes (Homo sapiens, UniProt P07384)
# T1 construct: Calpain I was purified from human erythrocytes; from tissue; host or cells: human erythrocytes
# T1 sequence (P07384 1-714): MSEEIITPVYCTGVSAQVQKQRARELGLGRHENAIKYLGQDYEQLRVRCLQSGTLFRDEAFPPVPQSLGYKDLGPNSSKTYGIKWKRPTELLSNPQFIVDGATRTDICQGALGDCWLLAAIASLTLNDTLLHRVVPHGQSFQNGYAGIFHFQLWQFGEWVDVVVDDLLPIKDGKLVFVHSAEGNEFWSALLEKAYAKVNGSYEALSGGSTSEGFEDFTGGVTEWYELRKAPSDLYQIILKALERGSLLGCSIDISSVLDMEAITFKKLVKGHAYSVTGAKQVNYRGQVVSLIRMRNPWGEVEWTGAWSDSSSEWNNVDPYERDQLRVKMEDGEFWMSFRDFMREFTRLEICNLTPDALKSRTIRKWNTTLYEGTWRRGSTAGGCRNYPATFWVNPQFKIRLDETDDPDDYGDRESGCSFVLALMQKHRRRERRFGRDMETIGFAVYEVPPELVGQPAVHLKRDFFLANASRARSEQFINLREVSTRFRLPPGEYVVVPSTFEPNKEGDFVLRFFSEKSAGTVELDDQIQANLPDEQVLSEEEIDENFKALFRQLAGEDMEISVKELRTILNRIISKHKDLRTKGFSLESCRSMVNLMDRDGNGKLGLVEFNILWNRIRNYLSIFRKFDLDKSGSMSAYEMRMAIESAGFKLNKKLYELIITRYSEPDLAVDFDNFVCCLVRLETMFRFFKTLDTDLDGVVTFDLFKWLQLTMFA
# T1 sequence (P04632 1-268 partner): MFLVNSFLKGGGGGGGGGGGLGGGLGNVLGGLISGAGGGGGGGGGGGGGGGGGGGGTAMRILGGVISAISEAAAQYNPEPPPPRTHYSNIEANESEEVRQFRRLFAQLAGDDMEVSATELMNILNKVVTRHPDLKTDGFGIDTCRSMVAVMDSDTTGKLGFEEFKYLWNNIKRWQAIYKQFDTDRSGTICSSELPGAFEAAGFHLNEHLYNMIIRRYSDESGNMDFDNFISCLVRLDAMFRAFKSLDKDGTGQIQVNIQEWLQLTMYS
# Assay: Calpain I inhibition, Suc-Leu-Tyr-AMC hydrolysis (KI)
# Format: biochemical
# Conditions: Table 1, Z-Leu--AA--CONHR; read-out: KI Cal I
# Procedure: HEPES, heparin, and A23187 were obtained from Calbiochem. Suc-Leu-Tyr-AMC and chromogenic substrates were obtained from Sigma. Calpain I was purified from human erythrocytes according to the method of Kitahara (Kitahara et al., J. Biochem. 95, 1759-1766) omitting the Blue-Sepharose step. Calpain II from rabbit muscle and cathepsin B were purchased from Sigma. Papain was purchased from Calbiochem.
# Peptide α-ketoamides were assayed as reversible enzyme inhibitors. Various concentrations of inhibitors in Me2 SO were added to the assay mixture which contained buffer and substrate. The reaction was started by the addition of the enzyme and the hydrolysis rates were followed spectrophotometrically or fluorimetrically.
# Calpain I from human erythrocytes and calpain II from rabbit were assayed using Suc-Leu-Tyr-AMC Sasaki et al., J. Biol. Chem. 259, 12489-12494 (1984); incorporated herein by reference!, and the AMC (7-amino-4-methylcoumarin) release was followed fluorimetrically (excitation at 380 nm, and emmision at 460 nm). Calpains were assayed in 25 mM Tris pH=8.0, 10 mM CaC12. Fluorescence was followed using a Gilson FL-1A fluorometer or a Perkin-Elmer 203 Fluorescence spectrometer. Cathepsin B was assayed in 20 mM sodium acetate pH=5.2, 0.5 mM dithiothreitol using Bz-Phe-Val-Arg-p-nitroanilide as substrate. Alternately, cathepsin B was assayed with Z-Arg-Arg-AFC Barrett and Kirschke, Methods Enzymol. 80, 535-561 (1981); incorporated herein by reference!, and the AFC (7-amino-4-trifluoromethylcoumarin) release was followed fluorimetrically (excitation at 400 nm and emmision at 505 nm). Papain was assayed in 100 mM KPO4, 1 mM EDTA, 2.5 mM cysteine pH=6.0 using Bz-Arg-AMC or Bz-Arg-NA Kanaoka et al., Chem. Pharm. Bull. 25, 3126-3128 (1977); incorporated herein by reference! as a substrate. The AMC (7-amino-4-methylcoumarin) release was followed fluorimetrically (excitation at 380 nm, and emmision at 460 nm). Enzymatic hydrolysis rates were measured at various substrate and inhibitor concentrations, and KI values were determined by either Lineweaver-Burk plots or Dixon plots.
# A 0.1M Hepes, 0.5M NaCl, pH 7.5 buffer was utilized for human leukocyte elastase (HLE), porcine pancreatic elastase (PPE), chymotrypsin and cathepsin G. A 0.1 Hepes, 0.01 M CaCl2, pH 7.5 buffer was utilized for trypsin, plasmin, and coagulation enzymes. A 50 mM Tris.HCl, 2 mM EDTA, 5 mM cysteine, pH 7.5 was used as a buffer for papain. A 88 mM KH2 PO4, 12 mM Na2 HPO4, 1.33 mM EDTA, 2.7 mM cysteine, pH 6.0 solution was used as a buffer for cathepsin B. A 20 mM Hepes, 10 mM CaCl2, 10 mM mercatoethanol, pH 7.2 buffer was utilized for calpain I and calpain II.
row,Molecule,pKi
1,CCC(NC(=O)C(CC(C)C)NC(=O)OCc1ccccc1)C(=O)C(=O)NCCCN1CCCc2ccccc21 (stereo not drawn) [Z-Leu-Abu-CONH--(CH2)3 -1-Tetrahydroquinolinyl],6.43
2,"CCC(NC(=O)C(CC(C)C)NC(=O)OCc1ccccc1)C(=O)C(=O)NCc1nc(C)cs1 (stereo not drawn) [Z-Leu-Abu-CONH-CH2 -2-(4-methylthiazole), Z-Leu-Abu-CONH--CH2 -2-(4-Methyl-2-thiazolyl)]",4.47

# Now from value to molecule:
row,pKi,Molecule
1,5.02,"CCC(NC(=O)C(CC(C)C)NC(=O)OCc1ccccc1)C(=O)C(=O)NCc1ccc[n+]([O-])c1 (stereo not drawn) [Z-Leu-Abu-CONH-CH2 -3-pyridyl-N-oxide, Z-Leu-Abu-CONH--CH2 -3-Pyridyl-N-oxide]"
2,6.42,CC(C)CC(NC(=O)OCc1ccccc1)C(=O)NC(Cc1ccccc1)C(=O)C(=O)NCCCN1CCCc2ccccc21 (stereo not drawn) [Z-Leu-Phe-CONH--(CH2)3-1-Tetrahydroquinolinyl]
3,6.89,"CCC(NC(=O)[C@H](CC(C)C)NC(=O)OCc1ccccc1)C(=O)C(=O)NCc1ccc2ccccc2n1 (stereo partly drawn) [Z-Leu-Abu-CONH-CH2 -2-quinolinyl, Z-Leu-Abu-CONH--CH2 -2-Quinolinyl]"
4,5.05,"CCC(NC(=O)C(CC(C)C)NC(=O)OCc1ccccc1)C(=O)C(=O)NCc1cc(=O)[nH]c(=O)[nH]1 (stereo not drawn) [Z-Leu-Abu-CONH-CH2 -6-uracil, Z-Leu-Abu-CONH--CH2 -6-Uracil]"
5,6.66,CC(C)CC(NC(=O)OCc1ccccc1)C(=O)NC(Cc1ccccc1)C(=O)C(=O)NCCCN1CCc2ccccc2C1 (stereo not drawn) [Z-Leu-Phe-CONH--(CH2)3-2-Tetrahydroisoquinolinyl]
6,6.66,"CC(C)CC(NC(=O)OCc1ccccc1)C(=O)NC(Cc1ccccc1)C(=O)C(=O)NCCNC(=O)CCCCC1SCC2NC(=O)NC21 (stereo not drawn) [Z-Leu-Phe-CONH-(CH2)2 NH-biotinyl, Z-Leu-Phe-CONH--(CH2)2 NH-Biotinyl]"

# Same assay, conditions: Table 2, Z-Leu--AA--CONH--CH2 CH(OH)-R; read-out: KI Cal I
row,Molecule,pKi
1,"CCC(NC(=O)C(CC(C)C)NC(=O)OCc1ccccc1)C(=O)C(=O)NCC(O)c1cccc(Oc2ccc(Cl)c(Cl)c2)c1 (stereo not drawn) [Z-Leu-Abu-CONH--CH2 CH(OH)C6 H4 -3-OC6 H3 (3,4-Cl2)]",6.57
2,"Z-Leu-Abu-CONH--CH2 CH(OH)C6 H2 (2,4,6-(OCH3)3)",6.42

# Other lines, results leading:
row,pKi,Molecule
1,6.15,"CC(C)CC(NC(=O)OCc1ccccc1)C(=O)NC(Cc1ccccc1)C(=O)C(=O)NCC(O)c1c(F)c(F)c(F)c(F)c1F (stereo not drawn) [Z-Leu-Phe-CONH-CH2 CH(OH)-C6 F5, Z-Leu-Phe-CONH--CH2 CH(OH)C6 F5]"
2,6.92,"CCC(NC(=O)C(CC(C)C)NC(=O)OCc1ccccc1)C(=O)C(=O)NCC(O)c1cccc2ccccc12 (stereo not drawn) [Z-Leu-Abu-CONH-CH2 CH(OH)-1-C10 H7, Z-Leu-Abu-CONH--CH2 CH(OH)-1-C10 H7]"
3,6.22,"CC(C)CC(NC(=O)OCc1ccccc1)C(=O)NC(Cc1ccccc1)C(=O)C(=O)NCC(O)c1cccc(Oc2ccccc2)c1 (stereo not drawn) [Z-Leu-Phe-CONH-CH2 CH(OH)-C6 H4 (3-OPh), Z-Leu-Phe-CONH--CH2 CH(OH)C6 H4 (3-OPh)]"
4,6.23,"CC(C)CC(NC(=O)OCc1ccccc1)C(=O)NC(Cc1ccccc1)C(=O)C(=O)NCC(O)c1cccc(Oc2ccc(Cl)c(Cl)c2)c1 (stereo not drawn) [Z-Leu-Phe-CONH--CH2 CH(OH)C6 H4 -3-OC6 H3 (3,4-Cl2)]"
5,6.34,Z-Leu-Phe-CONH--CH2 CH(OH)C6 H4 (3-CF3) [Z-Leu-Phe-CONH-CH2 CH(OH)-C6 H4 (3-CF3)]
6,6.46,"CCC(NC(=O)C(CC(C)C)NC(=O)OCc1ccccc1)C(=O)C(=O)NCC(O)c1ccc2ccccc2c1 (stereo not drawn) [Z-Leu-Abu-CONH-CH2 CH(OH)-2-C10 H7, Z-Leu-Abu-CONH--CH2 CH(OH)-2-C10 H7]"

# Same assay, conditions: Table 3, M1 CO-Leu--AA--CONH-R; read-out: KI Cal I
row,pKi,Molecule
1,5.10,"CCNC(=O)C(=O)C(CC)NC(=O)C(CC(C)C)NC(=O)N1CCOCC1 (stereo not drawn) [4-morpholinyl-CO-Leu-Abu-CONH-Et, 4-Morpholinyl-CO-Leu-Abu-CONHEt]"
2,4.73,"CCNC(=O)C(=O)C(CC)NC(=O)C(CC(C)C)NC(=O)C1CCCO1 (stereo not drawn) [2-tetrahydrofuryl-CO-Leu-Abu-CONH-Et, 2-Tetrahydrofuryl-CO-Leu-Abu-CONHEt]"
3,5.89,"CCNC(=O)C(=O)C(CC)NC(=O)C(CC(C)C)NC(=O)c1cccnc1 (stereo not drawn) [3-pyridyl-CO-Leu-Abu-CONH-Et, 3-Pyridyl-CO-Leu-Abu-CONHEt]"
4,6.12,"CCC(NC(=O)C(CC(C)C)NC(=O)C(c1ccccc1)c1ccccc1)C(=O)C(=O)NCC(O)c1ccccc1 (stereo not drawn) [Ph2 CH-CO-Leu-Abu-CONH-CH2 CH(OH)Ph, Ph2 CHCO-Leu-Abu-CONH--CH2 CH(OH)Ph]"
5,5.30,Ph2 CHCO-Leu-Abu-CONHEt [Ph2 CH-CO-Leu-Abu-CONH-Et]
6,6.52,"CCNC(=O)C(=O)C(CC)NC(=O)C(CC(C)C)NC(=O)c1cnccn1 (stereo not drawn) [2-pyrazinyl-CO-Leu-Abu-CONH-Et, 2-Pyrazinyl-CO-Leu-Abu-CONHEt]"
7,6.07,"CCNC(=O)C(=O)C(CC)NC(=O)C(CC(C)C)NC(=O)c1ccco1 (stereo not drawn) [2-furyl-CO-Leu-Abu-CONH-Et, 2-Furyl-CO-Leu-Abu-CONHEt]"
8,6.46,"CCNC(=O)C(=O)C(CC)NC(=O)C(CC(C)C)NC(=O)c1nccc2ccccc12 (stereo not drawn) [1-isoquinolinyl-CO-Leu-Abu-CONH-Et, 1-Isoquinolinyl-CO-Leu-Abu-CONHEt]"
9,5.42,"CCNC(=O)C(=O)[C@H](CC)NC(=O)[C@H](CC(C)C)NC(=O)CCC(=O)OC [CH3 OCO(CH2)2-CO-Leu-Abu-CONH-Et, CH3 OCO(CH2)2 CO-Leu-Abu-CONHEt]"
